We go through 6 compounds from US20260184663A1, “INDENE COMPOUNDS, PHARMACEUTICAL COMPOSITIONS THEREOF, AND THEIR THERAPEUTIC APPLICATIONS” (NucMito Pharmaceuticals co. Ltd., priority 2022, published 2026).

Common to all, as to type: cell-based
Experiment [1] deals with alpha-smooth muscle actin (α-SMA). The experiment is described as follows: Inhibition of TGF-β induced expression of alpha-smooth muscle actin (α-SMA) in CFSC cells (western blot). Particulars: compound at 10 μM, TGF-β (10 ng/mL), 24 hours, band intensity vs TGF-β only. The method, boiled down: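 Values are percent reduction of α-SMA band intensity relative to cells given TGF-β alone, quantified by Western blot densitometry with β-actin probed. Compound was applied at 10 μM alongside 10 ng/mL TGF-β to serum-free CFSC cultures for 24 h at 37 °C.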
(A western blot detects proteins with antibodies after separation by electrophoresis.)

Experiment [2] deals with MDA-MB-231 (breast cancer). The experiment is described as follows: Antiproliferative activity (CCK-8 cell viability), MDA-MB-231. Particulars: Homo sapiens, 72 h, read-out: Antiproliferative activity in cancerous cells, MDA-MB-231 (inhibition of cell growth); for inhibition at 3.3 µM: Compound concentration: 3.3 μM; for inhibition at 10 µM: Compound concentration: 10 μM; for inhibition at 30 µM: Compound concentration: 30 μM. The method, boiled down:
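Growth inhibition of human MDA-MB-231 breast cancer cells was assessed with a Cell Counting Kit-8. Cells cultured in DMEM plus 10% FBS were seeded at 2,000-5,000 cells/well, treated after attachment, and kept 72 h at 37° C. CCK-8 solution (10 μL) was added for 4 h, and absorbance at 450 nm was compared with DMSO-treated controls.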

The test system of experiment [3] is HepG2 (liver cancer). The experiment is described as follows: Antiproliferative activity (CCK-8 cell viability), HepG2. The note with it: Homo sapiens, 72 h, read-out: Antiproliferative activity in cancerous cells, HepG2 (inhibition of cell growth); for inhibition at 3.3 µM: Compound concentration: 3.3 μM; for inhibition at 10 µM: Compound concentration: 10 μM; for inhibition at 30 µM: Compound concentration: 30 μM. The method, boiled down:
(§1)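 Growth inhibition graded in bands from percent viability against DMSO vehicle, read as CCK-8 absorbance at 450 nm. Compound tested at 3.3, 10 or 30 μM for 72 h, 37 °C; media contained 10% FBS: DMEM for HepG2/SW480, MEM for HeLa, F-12K for A549.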

Experiment [4] relates to SW480 (colon cancer). Briefly: Antiproliferative activity (CCK-8 cell viability), SW480. The note with it: Homo sapiens, 72 h, read-out: Antiproliferative activity in cancerous cells, SW480 (inhibition of cell growth); for inhibition at 3.3 µM: Compound concentration: 3.3 μM; for inhibition at 10 µM: Compound concentration: 10 μM; for inhibition at 30 µM: Compound concentration: 30 μM. The method, boiled down: as §1

Experiment [5] concerns B16F10 (malignant melanoma). Briefly: Antiproliferative activity (CCK-8 cell viability), B16F10. Particulars: Mus musculus, 72 h, read-out: Antiproliferative activity in cancerous cells, B16F10 (inhibition of cell growth); for inhibition at 3.3 µM: B16-F10, Compound concentration: 3.3 μM; for inhibition at 10 µM: B16-F10, Compound concentration: 10 μM; for inhibition at 30 µM: B16-F10, Compound concentration: 30 μM. The method, boiled down:
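Cell growth inhibition was measured in B16F10 malignant melanoma cells with a Cell Counting Kit-8 viability assay. Cells were maintained in DMEM plus 10% fetal bovine serum, seeded at 2,000-5,000 cells/well in 96-well plates, and treated for 72 h at 37° C. Viability was expressed relative to DMSO-treated vehicle control wells.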

Experiment [6] relates to A431 (epidermoid carcinoma). Briefly: Antiproliferative activity (CCK-8 cell viability), A431. The note with it: Homo sapiens, 72 h, read-out: Antiproliferative activity in cancerous cells, A431 (inhibition of cell growth); for inhibition at 3.3 µM: A-431, Compound concentration: 3.3 μM; for inhibition at 10 µM: A-431, Compound concentration: 10 μM; for inhibition at 30 µM: A-431, Compound concentration: 30 μM. The method, boiled down: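 This growth inhibition assay used A431 cells maintained in Dulbecco's modified Eagle's medium plus 10% fetal bovine serum. Cells were seeded in 96-well plates, treated with compound for 72 h at 37° C., and then given 10 μL CCK-8 solution. After a further 4 h, absorbance was read at 450 nm.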

Experiment [7] has as its system A549 (lung adenocarcinoma). Briefly: Antiproliferative activity (CCK-8 cell viability), A549. Particulars: Homo sapiens, 72 h, read-out: Antiproliferative activity in cancerous cells, A549 (inhibition of cell growth); for inhibition at 3.3 µM: Compound concentration: 3.3 μM; for inhibition at 10 µM: Compound concentration: 10 μM; for inhibition at 30 µM: Compound concentration: 30 μM. The essentials: as §1

The subject of experiment [8] is HeLa (cervical cancer). The experiment is described as follows: Antiproliferative activity (CCK-8 cell viability), HeLa. The note with it: Homo sapiens, 72 h, read-out: Antiproliferative activity in cancerous cells, HELA (inhibition of cell growth); for inhibition at 3.3 µM: Compound concentration: 3.3 μM; for inhibition at 10 µM: Compound concentration: 10 μM; for inhibition at 30 µM: Compound concentration: 30 μM. The essentials: as §1

Some results are limits rather than exact numbers.

Consider `CC1=C(C(C)C(=O)O)c2ccccc2/C1=C\c1ccc(Oc2ccc(F)cc2)cc1` (centres unmarked) [C29, (Z)-2-(1-(4-(4-Fluorophenoxy)benzylidene)-2-methyl-1H-inden-3-yl)propanoic acid], for which the inhibition at 10 µM in experiment [1] was 50 to 80%; in experiment [2] it was at least 50%; in experiment [3], at least 50%; in experiment [4], 30 to 50%; in experiment [5], at least 50%; in experiment [6], at least 50%. For the same compound, the values for the inhibition at 10 µM in experiment [7] and in experiment [8] were 30 to 50% and at least 50%, respectively. Also, the inhibition at 3.3 µM in experiment [2] was 30 to 50%; in experiment [3], below 30%; in experiment [4] it was 30 to 50%; in experiment [5], 30 to 50%; in experiment [6], below 30%; in experiment [7], below 30%. The inhibition at 3.3 µM in experiment [8] was at least 50%.

Consider `CC1=C(CC(=O)O)c2cc(F)ccc2/C1=C\c1cccc(COc2cccc(C(C)(C)C)c2)c1` [B21, (Z)-2-(1-(3-((3-(Tert-butyl)phenoxy)methyl)benzylidene)-5-fluoro-2-methyl-1H-inden-3-yl)acetic acid], for which the inhibition at 10 µM in experiment [1] is above 80%; in experiment [2], at least 50%; in experiment [3] it was 30 to 50%; in experiment [4] it was 30 to 50%; in experiment [5] it was at least 50%; in experiment [6], 30 to 50%. In addition, the inhibition at 10 µM in experiment [7] and in experiment [8] was at least 50% throughout. Besides, the inhibition at 3.3 µM was at least 50% in experiment [2]; below 30% in experiment [3]; below 30% in experiment [4]; below 30% in experiment [5]; below 30% in experiment [6]; below 30% in experiment [7]. Moreover, in experiment [8], the inhibition at 3.3 µM is below 30%.

In the case of `CC1=C(CC(=O)O)c2cc(C)ccc2/C1=C\c1cccc(COc2ccccc2)c1` [B12, (Z)-2-(2,5-Dimethyl-1-(3-(phenoxymethyl)benzylidene)-1H-inden-3-yl)acetic acid], the inhibition at 10 µM in experiment [1] is above 80%; in experiment [2] it was at least 50%; in experiment [3] it was at least 50%; in experiment [4] it was below 30%; in experiment [5], 30 to 50%; in experiment [6] it was at least 50%. For the same compound, the inhibition at 10 µM in experiment [7] and in experiment [8] was at least 50% throughout. Besides, the inhibition at 3.3 µM in experiment [2] is at least 50%; in experiment [3], below 30%; in experiment [4], below 30%; in experiment [5] it was below 30%; in experiment [6], at least 50%; in experiment [7] it was 30 to 50%. The inhibition at 3.3 µM in experiment [8] was below 30%.

On to `CC1=C(CC(=O)O)c2c(F)ccc(F)c2/C1=C/c1ccc(C(F)(F)F)cc1` [E15, (E)-2-(4,7-Difluoro-2-methyl-1-(4-(trifluoromethyl)benzylidene)-1H-inden-3-yl)-acetic acid], for which the inhibition at 10 µM in experiment [1] is below 30%; in experiment [2] it was at least 50%; in experiment [3], below 30%; in experiment [4] it was below 30%; in experiment [5], below 30%; in experiment [6], below 30%. In addition, the inhibition at 10 µM in experiment [7] was below 30%; in experiment [8], 30 to 50%. For the same compound, the inhibition at 3.3 µM in experiment [2] is at least 50%; in experiment [3] it was below 30%; in experiment [4], below 30%; in experiment [5], below 30%; in experiment [6], below 30%; in experiment [7], below 30%. In addition, the inhibition at 3.3 µM in experiment [8] is below 30%. The inhibition at 30 µM in experiment [2] was at least 50%; in experiment [3], below 30%; in experiment [4], below 30%; in experiment [5], at least 50%; in experiment [6], at least 50%; in experiment [7], at least 50%. Further, in experiment [8], the inhibition at 30 µM is at least 50%.

Turning to `COc1ccc2c(c1)/C(=C\c1ccc(Oc3ccc(F)cc3)cc1)C=C2CC(=O)O` [C2, (Z)-2-(1-(4-(4-Fluorophenoxy)benzylidene)-6-methoxy-1H-inden-3-yl)acetic acid], the inhibition at 10 µM in experiment [1] was above 80%; in experiment [2], at least 50%; in experiment [3], 30 to 50%; in experiment [4] it was 30 to 50%; in experiment [5], at least 50%; in experiment [6] it was at least 50%. The results for the inhibition at 10 µM in experiment [7] and in experiment [8] were below 30% and at least 50%, respectively. Besides, the inhibition at 3.3 µM in experiment [2] is at least 50%; in experiment [3], 30 to 50%; in experiment [4], at least 50%; in experiment [5], below 30%; in experiment [6] it was 30 to 50%; in experiment [7], below 30%. Also, the inhibition at 3.3 µM in experiment [8] was 30 to 50%.

Take `CC1=C(CC(=O)O)c2cc(F)ccc2/C1=C/c1cccc(COc2ccc(F)cc2F)c1` [E6, (E)-2-(1-(3-((2,4-Difluorophenoxy)methyl)benzylidene)-5-fluoro-2-methyl-1H-inden-3-yl)acetic acid]: the inhibition at 10 µM in experiment [1] was above 80%; in experiment [2] it was 30 to 50%; in experiment [3] it was below 30%; in experiment [4], 30 to 50%; in experiment [5] it was 30 to 50%; in experiment [6], 30 to 50%. Moreover, the inhibition at 10 µM in experiment [7] and in experiment [8] was below 30% throughout. Besides, the inhibition at 3.3 µM was 30 to 50% in experiment [2]; below 30% in experiment [3]; below 30% in experiment [4]; below 30% in experiment [5]; below 30% in experiment [6]; below 30% in experiment [7]. In experiment [8], the inhibition at 3.3 µM is below 30%. Also, the inhibition at 30 µM in experiment [2], in experiment [3], in experiment [4], in experiment [5], in experiment [6] and in experiment [7] was at least 50% each time. The inhibition at 30 µM in experiment [8] is at least 50%.

One may read the inhibition as the share of the control response that was lost under treatment.
